One block for each compound: values may come before it.
Test system: 422866-222-R5-J1-PDC complex spheroids viability
Assay: Anticancer human tumor 422866-222-R5-J1-PDC patient-derived pancreatic adenocarcinoma cell line growth inhibition [RAS]
Settings: for viability, T/C: stronger effect = lower value
Outline: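 Agents were tested in combination matrices in half-log decrements from a top concentration at or near clinical Cmax (10 microM if undetermined). Targets were multi-cell spheroids of tumour lines plus HUVEC and MSC stromal cells.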

[1] = curve of first compound, second compound 0.00316 µM
[2] = curve of first compound, second compound 0.01 µM
[3] = curve of first compound, second compound 0.0316 µM
[4] = curve of first compound, second compound 0.1 µM
[5] = curve of first compound, second compound 0.316 µM
[6] = curve of first compound, second compound 1 µM
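Note: spheroids exposed to compounds for 7 days.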
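Throughout, for viability, T/C: 100% = DMSO vehicle control viability.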

IC50 [1]: < 31.6 nM | IC50 [2]: < 31.6 nM | IC50 [3]: < 31.6 nM | IC50 [4]: < 31.6 nM | IC50 [5]: < 31.6 nM | IC50 [6]: < 31.6 nM
SMILES: CCC(CC)c1cc(NC2CCC(N)C2)n2nccc2n1 (centres undefined) + C=CC(=O)N1CCN(c2nc(OCC3CCCN3C)nc3c(F)c(-c4nc(N)cc(C)c4C(F)(F)F)c(Cl)cc23)C(C)C1
viability, T/C (second compound 0.00316 µM, first compound 0.0316 µM): 25.9% | viability, T/C (second compound 0.00316 µM, first compound 0.1 µM): 36.1% | viability, T/C (second compound 0.00316 µM, first compound 0.316 µM): 32.8% | viability, T/C (second compound 0.00316 µM, first compound 1 µM): 30.5% | viability, T/C (second compound 0.00316 µM, first compound 3.16 µM): 9.42% | viability, T/C (second compound 0.00316 µM, first compound 10 µM): 32.1% | viability, T/C (second compound 0.01 µM, first compound 0.0316 µM): 36.9% | viability, T/C (second compound 0.01 µM, first compound 0.1 µM): 26.8% | viability, T/C (second compound 0.01 µM, first compound 0.316 µM): 30.6% | viability, T/C (second compound 0.01 µM, first compound 1 µM): 28.9% | viability, T/C (second compound 0.01 µM, first compound 3.16 µM): 8.11% | viability, T/C (second compound 0.01 µM, first compound 10 µM): 33.1% | viability, T/C (second compound 0.0316 µM, first compound 0.0316 µM): 38.8% | viability, T/C (second compound 0.0316 µM, first compound 0.1 µM): 34.4% | viability, T/C (second compound 0.0316 µM, first compound 0.316 µM): 26.6% | viability, T/C (second compound 0.0316 µM, first compound 1 µM): 27.2% | viability, T/C (second compound 0.0316 µM, first compound 3.16 µM): 8.27% | viability, T/C (second compound 0.0316 µM, first compound 10 µM): 31.5% | viability, T/C (second compound 0.1 µM, first compound 0.0316 µM): 19.1% | viability, T/C (second compound 0.1 µM, first compound 0.1 µM): 24.1% | viability, T/C (second compound 0.1 µM, first compound 0.316 µM): 24.2% | viability, T/C (second compound 0.1 µM, first compound 1 µM): 25.6% | viability, T/C (second compound 0.1 µM, first compound 3.16 µM): 6.99% | viability, T/C (second compound 0.1 µM, first compound 10 µM): 35.6% | viability, T/C (second compound 0.316 µM, first compound 0.0316 µM): 19.3% | viability, T/C (second compound 0.316 µM, first compound 0.1 µM): 22.3% | viability, T/C (second compound 0.316 µM, first compound 0.316 µM): 27.6% | viability, T/C (second compound 0.316 µM, first compound 1 µM): 25.3% | viability, T/C (second compound 0.316 µM, first compound 3.16 µM): 7.15% | viability, T/C (second compound 0.316 µM, first compound 10 µM): 36.3% | viability, T/C (second compound 1 µM, first compound 0.0316 µM): 19.6% | viability, T/C (second compound 1 µM, first compound 0.1 µM): 22.8% | viability, T/C (second compound 1 µM, first compound 0.316 µM): 28.9% | viability, T/C (second compound 1 µM, first compound 1 µM): 27.1% | viability, T/C (second compound 1 µM, first compound 3.16 µM): 9.75% | viability, T/C (second compound 1 µM, first compound 10 µM): 41.1%

IC50 (curve of compound): > 100 nM
SMILES: CC(C)n1nc(-c2ccc3oc(N)nc3c2)c2c(N)ncnc21
viability, T/C (compound 0.000316 µM): 103% [middle of 4 runs] | viability, T/C (compound 0.001 µM): 82.4% [middle of 4 runs] | viability, T/C (compound 0.01 µM): 94% [middle of 4 runs]

IC50 [1]: < 0.949 nM | IC50 [2]: < 0.949 nM | IC50 [3]: < 0.949 nM | IC50 [4]: < 0.949 nM | IC50 [5]: < 0.949 nM | IC50 [6]: < 0.949 nM
SMILES: CCc1c2c(nc3ccc(O)cc13)-c1cc3c(c(=O)n1C2)COC(=O)[C@]3(O)CC + C=CC(=O)N1CCN(c2nc(OCC3CCCN3C)nc3c(F)c(-c4nc(N)cc(C)c4C(F)(F)F)c(Cl)cc23)C(C)C1
viability, T/C (second compound 0.00316 µM, first compound 0.000949 µM): 25.3% | viability, T/C (second compound 0.00316 µM, first compound 0.003 µM): 21.1% | viability, T/C (second compound 0.00316 µM, first compound 0.00949 µM): 15.8% | viability, T/C (second compound 0.00316 µM, first compound 0.03 µM): 15.9% | viability, T/C (second compound 0.00316 µM, first compound 0.0949 µM): 15.2% | viability, T/C (second compound 0.00316 µM, first compound 0.3 µM): 11.3% | viability, T/C (second compound 0.01 µM, first compound 0.000949 µM): 24.9% | viability, T/C (second compound 0.01 µM, first compound 0.003 µM): 20.7% | viability, T/C (second compound 0.01 µM, first compound 0.00949 µM): 18.1% | viability, T/C (second compound 0.01 µM, first compound 0.03 µM): 18.3% | viability, T/C (second compound 0.01 µM, first compound 0.0949 µM): 12.9% | viability, T/C (second compound 0.01 µM, first compound 0.3 µM): 10.9% | viability, T/C (second compound 0.0316 µM, first compound 0.000949 µM): 25.3% | viability, T/C (second compound 0.0316 µM, first compound 0.003 µM): 18.3% | viability, T/C (second compound 0.0316 µM, first compound 0.00949 µM): 16.8% | viability, T/C (second compound 0.0316 µM, first compound 0.03 µM): 14.8% | viability, T/C (second compound 0.0316 µM, first compound 0.0949 µM): 15.4% | viability, T/C (second compound 0.0316 µM, first compound 0.3 µM): 15.6% | viability, T/C (second compound 0.1 µM, first compound 0.000949 µM): 21.8% | viability, T/C (second compound 0.1 µM, first compound 0.003 µM): 15.9% | viability, T/C (second compound 0.1 µM, first compound 0.00949 µM): 15.4% | viability, T/C (second compound 0.1 µM, first compound 0.03 µM): 16.2% | viability, T/C (second compound 0.1 µM, first compound 0.0949 µM): 14.6% | viability, T/C (second compound 0.1 µM, first compound 0.3 µM): 10.9% | viability, T/C (second compound 0.316 µM, first compound 0.000949 µM): 19.1% | viability, T/C (second compound 0.316 µM, first compound 0.003 µM): 17.5% | viability, T/C (second compound 0.316 µM, first compound 0.00949 µM): 15.6% | viability, T/C (second compound 0.316 µM, first compound 0.03 µM): 14.2% | viability, T/C (second compound 0.316 µM, first compound 0.0949 µM): 12.8% | viability, T/C (second compound 0.316 µM, first compound 0.3 µM): 12.3% | viability, T/C (second compound 1 µM, first compound 0.000949 µM): 17% | viability, T/C (second compound 1 µM, first compound 0.003 µM): 16% | viability, T/C (second compound 1 µM, first compound 0.00949 µM): 17.1% | viability, T/C (second compound 1 µM, first compound 0.03 µM): 14% | viability, T/C (second compound 1 µM, first compound 0.0949 µM): 14.4% | viability, T/C (second compound 1 µM, first compound 0.3 µM): 13.1%

IC50 (curve of compound): > 300 nM
SMILES: CC1(C)CCC(Nc2ncc(C(F)(F)F)c(-c3c[nH]c4c(P(C)(C)=O)c(C#N)ccc34)n2)CN1 (centres undefined)
viability, T/C (compound 0.003 µM): 93% [middle of 4 runs] | viability, T/C (compound 0.00949 µM): 78.1% [middle of 4 runs] | viability, T/C (compound 0.03 µM): 73.1% [middle of 4 runs] | viability, T/C (compound 0.0949 µM): 67.2% [middle of 4 runs] | viability, T/C (compound 0.3 µM): 69.9% [middle of 4 runs]
